Holding throughout (details): binder
One test concerns the target JNK1 (Homo sapiens, UniProt P45983).
The target in test [1] is T1, MST2 (Homo sapiens, UniProt Q13188).
T1 sequence (Q13188 1-491): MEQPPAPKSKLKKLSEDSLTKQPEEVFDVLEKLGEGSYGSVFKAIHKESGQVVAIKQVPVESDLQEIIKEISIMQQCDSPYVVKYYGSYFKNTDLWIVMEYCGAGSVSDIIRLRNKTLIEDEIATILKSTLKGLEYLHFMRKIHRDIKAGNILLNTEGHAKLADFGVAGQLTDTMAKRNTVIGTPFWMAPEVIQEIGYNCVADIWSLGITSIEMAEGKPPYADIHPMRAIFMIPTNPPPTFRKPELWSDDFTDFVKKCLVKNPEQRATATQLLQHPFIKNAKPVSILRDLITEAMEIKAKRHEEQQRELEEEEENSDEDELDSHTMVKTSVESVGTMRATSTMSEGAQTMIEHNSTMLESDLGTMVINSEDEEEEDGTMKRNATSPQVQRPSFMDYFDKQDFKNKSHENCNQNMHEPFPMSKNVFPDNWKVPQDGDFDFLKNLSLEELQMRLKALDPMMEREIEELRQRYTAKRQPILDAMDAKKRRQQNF

A further test concerns the target T2, NEK2 (Homo sapiens, UniProt P51955).
T2 sequence (P51955 1-445): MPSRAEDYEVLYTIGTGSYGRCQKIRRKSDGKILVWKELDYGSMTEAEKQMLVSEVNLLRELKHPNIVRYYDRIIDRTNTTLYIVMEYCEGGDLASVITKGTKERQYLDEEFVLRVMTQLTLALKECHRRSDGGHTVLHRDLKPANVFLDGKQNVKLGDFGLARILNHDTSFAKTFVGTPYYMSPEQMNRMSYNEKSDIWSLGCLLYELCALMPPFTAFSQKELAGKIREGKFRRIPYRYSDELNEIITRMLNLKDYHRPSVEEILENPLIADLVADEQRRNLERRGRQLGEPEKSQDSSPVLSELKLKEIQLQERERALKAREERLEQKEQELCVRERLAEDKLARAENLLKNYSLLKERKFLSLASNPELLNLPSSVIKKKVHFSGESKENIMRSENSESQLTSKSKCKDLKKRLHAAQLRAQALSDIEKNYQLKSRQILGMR

Another test addresses MST3 (Homo sapiens, UniProt Q9Y6E0).
A further test has as its target T3, Haspin (Homo sapiens, UniProt Q8TF76).
T3 sequence (Q8TF76 1-798): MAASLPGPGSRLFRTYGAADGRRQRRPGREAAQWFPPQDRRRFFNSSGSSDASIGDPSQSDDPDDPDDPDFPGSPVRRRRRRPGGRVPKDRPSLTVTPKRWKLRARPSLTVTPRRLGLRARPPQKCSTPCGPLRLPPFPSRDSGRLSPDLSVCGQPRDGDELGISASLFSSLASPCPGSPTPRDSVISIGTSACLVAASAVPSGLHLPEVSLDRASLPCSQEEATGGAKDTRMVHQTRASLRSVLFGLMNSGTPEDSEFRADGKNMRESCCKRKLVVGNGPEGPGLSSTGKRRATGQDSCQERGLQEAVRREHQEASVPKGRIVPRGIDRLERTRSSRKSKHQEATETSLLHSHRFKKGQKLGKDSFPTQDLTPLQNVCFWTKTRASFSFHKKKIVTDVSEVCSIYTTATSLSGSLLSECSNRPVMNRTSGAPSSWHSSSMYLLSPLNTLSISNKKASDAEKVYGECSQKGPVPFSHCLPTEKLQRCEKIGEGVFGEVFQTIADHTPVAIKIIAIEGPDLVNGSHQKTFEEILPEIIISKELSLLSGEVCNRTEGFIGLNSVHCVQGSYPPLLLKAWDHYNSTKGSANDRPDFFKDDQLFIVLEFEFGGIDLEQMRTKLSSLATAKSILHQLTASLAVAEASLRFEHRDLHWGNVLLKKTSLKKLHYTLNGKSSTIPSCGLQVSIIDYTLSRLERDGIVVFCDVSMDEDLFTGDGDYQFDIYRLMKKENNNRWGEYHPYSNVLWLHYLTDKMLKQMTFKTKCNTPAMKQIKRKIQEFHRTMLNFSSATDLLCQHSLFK

Test [2] has as its target T1, MST2. This is another data set of the same source.
The target in another test is T4, MST1 (Homo sapiens, UniProt Q13043).
T4 sequence (Q13043 1-487): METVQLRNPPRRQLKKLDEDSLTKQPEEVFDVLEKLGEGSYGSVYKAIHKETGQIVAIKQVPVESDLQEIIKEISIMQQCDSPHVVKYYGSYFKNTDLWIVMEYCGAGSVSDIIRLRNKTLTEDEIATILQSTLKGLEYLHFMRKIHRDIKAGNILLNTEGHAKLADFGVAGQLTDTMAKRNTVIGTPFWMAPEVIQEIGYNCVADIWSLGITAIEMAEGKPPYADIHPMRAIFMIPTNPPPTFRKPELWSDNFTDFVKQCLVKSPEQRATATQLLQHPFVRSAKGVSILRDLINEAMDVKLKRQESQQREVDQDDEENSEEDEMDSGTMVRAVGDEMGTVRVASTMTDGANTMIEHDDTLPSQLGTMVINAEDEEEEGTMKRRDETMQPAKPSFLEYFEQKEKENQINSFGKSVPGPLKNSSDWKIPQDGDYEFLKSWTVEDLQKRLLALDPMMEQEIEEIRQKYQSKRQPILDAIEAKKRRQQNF

Sequence of MST3 (Q9Y6E0 whole entry): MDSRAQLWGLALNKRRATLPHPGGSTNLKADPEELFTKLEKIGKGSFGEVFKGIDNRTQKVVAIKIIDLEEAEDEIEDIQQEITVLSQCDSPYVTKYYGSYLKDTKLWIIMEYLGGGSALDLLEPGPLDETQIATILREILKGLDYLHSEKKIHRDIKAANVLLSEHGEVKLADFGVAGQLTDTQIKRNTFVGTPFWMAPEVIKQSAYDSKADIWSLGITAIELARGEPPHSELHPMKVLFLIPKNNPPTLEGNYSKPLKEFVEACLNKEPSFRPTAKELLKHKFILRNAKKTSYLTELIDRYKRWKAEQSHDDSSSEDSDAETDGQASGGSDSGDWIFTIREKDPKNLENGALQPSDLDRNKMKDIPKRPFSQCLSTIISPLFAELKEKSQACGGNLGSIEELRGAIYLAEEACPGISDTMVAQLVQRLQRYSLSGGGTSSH
Sequence of JNK1 (P45983 whole entry): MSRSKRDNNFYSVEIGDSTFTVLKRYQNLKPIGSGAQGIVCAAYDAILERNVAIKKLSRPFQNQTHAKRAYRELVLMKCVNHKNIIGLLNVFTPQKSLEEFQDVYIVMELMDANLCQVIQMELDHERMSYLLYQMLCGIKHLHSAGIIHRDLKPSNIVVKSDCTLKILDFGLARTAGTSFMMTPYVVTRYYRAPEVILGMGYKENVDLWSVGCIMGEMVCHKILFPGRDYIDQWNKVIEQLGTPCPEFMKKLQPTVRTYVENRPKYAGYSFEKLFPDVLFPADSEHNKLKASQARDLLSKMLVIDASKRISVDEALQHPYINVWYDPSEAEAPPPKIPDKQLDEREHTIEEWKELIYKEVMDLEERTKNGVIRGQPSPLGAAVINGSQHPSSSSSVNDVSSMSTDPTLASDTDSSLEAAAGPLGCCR

On to `Cc1cccc(-c2ccc(-c3cc4cnc(NCCCc5ccc(N)cc5)nc4n(CCCCN)c3=O)c(Cl)c2)n1` [compound 25, 8-(4-Aminobutyl)-2-((3-(4-aminophenyl)propyl)amino)-6-(2-chloro-4-(6-methylpyridin-2-yl)phenyl)pyrido[2,3-d]pyrimidin-7(8H)-one], for which the “ΔTm 25” value is 4.5 °C on JNK1; 9.4 °C on MST2 [1]; 8.8 °C on NEK2; 11.8 °C on MST3; 1.9 °C on Haspin.

For `CNc1ncc2cc(-c3ccc(-c4cccc(C)n4)cc3Cl)c(=O)n(C[C@H]3CC[C@H](N)CC3)c2n1` [compound 23, 23], the “dTm MST2” value on MST2 [2] was found to be 10.8 °C. Also, the “dTm MST1” value on MST1 is 7.9 °C. Further, the “ΔTm 23” value on JNK1 is 4.5 °C; at MST2 [1], 10.8 °C; on NEK2, 6.9 °C; on MST3, 10.8 °C; at Haspin, 1.5 °C.

For `CNc1ncc2cc(-c3ccc(-c4cccc(C)n4)cc3Cl)c(=O)n(CCCCN)c2n1` [compound 20, MRLW5], the “dTm MST2” value on MST2 [2] was found to be 7.9 °C. Besides, on MST1, the “dTm MST1” value stood at 5.6 °C. In addition, the “ΔTm MRLW5 (20)” value on JNK1 was 4.2 °C; on MST2 [1] it was 7.9 °C; on NEK2, 4.6 °C; at MST3 it was 11.7 °C; at Haspin it was -0.4 °C.

`CNc1ncc2cc(-c3ccc(-c4cccc(C)n4)cc3Cl)c(=O)n(CCC3CCNCC3)c2n1` [compound 22, 6-(2-Chloro-4-(6-methylpyridin-2-yl)phenyl)-2-(methylamino)-8-(2-(piperidin-4-yl)ethyl)pyrido[2,3-d]pyrimidin-7(8H)-one]: the “dTm MST2” value at MST2 [2] was found to be 8.0 °C. The “dTm MST1” value at MST1 turned out to be 6.0 °C. The “ΔTm 22” value is 4.0 °C at JNK1; 8.0 °C at MST2 [1]; 6.6 °C at NEK2; 10.5 °C at MST3; -1.2 °C on Haspin.

Turning to `Cc1cccc(-c2ccc(-c3cc4cnc(NC(CO)CO)nc4n(CCCCN)c3=O)c(Cl)c2)n1` [compound 24, 8-(4-Aminobutyl)-6-(2-chloro-4-(6-methylpyridin-2-yl)phenyl)-2-((1,3-dihydroxypropan-2-yl)amino)pyrido[2,3-d]pyrimidin-7(8H)-one], the “ΔTm MR24 (24)” value on JNK1 is 0.7 °C; at MST2 [1], 4.9 °C; on NEK2, 5.6 °C; on MST3 it was 11.0 °C; at Haspin, -1.4 °C.

Consider `Cc1cccc(-c2ccc(-c3cc4cnc(NCCCN5CCOCC5)nc4n(CCCCN)c3=O)c(Cl)c2)n1` [compound 26, MR26], for which the “ΔTm MR26 (26)” value was 0.8 °C on JNK1; 7.7 °C at MST2 [1]; 5.9 °C at NEK2; 12.4 °C on MST3; -1.5 °C on Haspin.

(Values after doi:10.1101/2023.11.24.568596v1 (biorxiv, 2023).)
